{"source": "patent US20220401751A1", "about": "“Thalamic Input to Orbitofrontal Cortex Drives Brain-Wide, Frequency-Dependent Inhibition Mediated By GABA and Zona Incerta” (priority 2019, published 2022)", "key": {"[1]": {"tested_on": "GABAA receptors", "test": "Single-unit recordings in contralateral VLO during 10 Hz thalamocortical stimulation before and after micro-infusion of BMI", "format": "in vivo, Sprague-Dawley rats", "experimental": "It was next hypothesized that decreases in cortical activity reflect direct GABA-mediated inhibition. The dependence of this response on downstream GABA release was tested by comparing evoked changes in firing rate before and after micro-infusion of bicuculline methiodide (BMI). […] Single-unit recordings were performed in cVLO, where negative fMRI signals were observed during 10 Hz thalamocortical stimulation (FIG. 5A). To ensure that any changes associated with BMI infusion were due to its pharmacological effect, infusions with sterile saline were first performed. To inject both BMI and saline, a pair of cannulas was attached to the recording electrode directly above the electrical contacts (FIG. 5B).\n(§1) In vivo electrophysiology was performed to directly measure the neuronal activity of various brain regions during thalamocortical stimulation. As with imaging, anesthesia was maintained with a mixture of 02 (35%), N20 (65%), and −1.5% isoflurane. Throughout the procedure, body temperature was maintained at 37° C. using a thermoresistive heating pad (FHC, Inc., ME, USA). After securing the animal within a stereotactic frame, a 16-channel microelectrode array (NeuroNexus Technologies, MI, USA; A1×16 standard model linear electrode array) was inserted at the desired recording site. For recordings at the site of stimulation and zona incerta, an optical fiber glued to the electrode tip was used to deliver light. Remote recordings were performed at the following coordinates, averaged across animals: contralateral VLO (+4.68 mm AP, −1.90 mm ML, −4.90 mm DV), ipsilateral motor cortex (+3.24 mm AP, +2.43 mm ML, −3.00 mm DV), ipsilateral reticular nucleus (−1.86 mm AP, +2.20 mm ML, −6.93 mm DV), contralateral reticular nucleus (−1.92 mm AP, −2.10 mm ML, −7.17 mm DV), and ipsilateral zona incerta (−4.00 mm AP, +3.10 mm ML, −7.13 mm DV). Light was delivered to the fiber-optic implant at VLO via a 473 nm laser source calibrated to 5 mW power delivery. In one animal, a higher power level was used (no more than −2×) to account for a fiber implanted in a relatively dorsal position in VLO. For the optrode positioned in zona incerta, a […] diameter optical fiber was used to deliver continuous light from a 589 nm laser source (LaserGlow Technologies) calibrated to 5 mW at the implanted fiber's tip. Recordings were performed for 20 s without stimulation, followed by repeated stimulation cycles (20 s on, 40 s off) at 10 or 40 Hz with a 30% duty cycle. To assess the role of zona incerta, 10 Hz stimulation trials were interleaved with 30 s periods of simultaneous eNpHR activation beginning 5 s prior to 10 Hz stimulation (FIG. 7B).\n(§2) Pharmacological infusions were performed during in vivo electrophysiology (same procedure as described above) with bicuculline methiodide (BMI; 0.6 mg/ml; Sigma-Aldrich #14343), lidocaine hydrochloride (2%; Fresenius Kabi, IL, USA; #491507), or sterile saline as a control. Solutions were delivered at a rate of 250 nL/min via two polyethylene cannulas (0.011/0.024″ ID/OD; A-M Systems, WA, USA)—one for saline and one for the active pharmacological agent—glued to the tip of a recording electrode, directly above the topmost recording contact. Cannula tips were beveled to ensure that injected solutions were released in the direction of the electrode.\n(§3) Infusions of saline and BMI (500 nL) were performed in the contralateral VLO while recording directly below the site of infusion (FIG. 5B). For each solution, twenty 10 Hz stimulation/recording trials were performed before infusion onset, and twenty more trials were performed immediately after infusion. Saline was delivered first, followed by BMI. To assess the role of zona incerta, saline and lidocaine (500-1000 nL) were delivered to the ipsilateral zona incerta while recording in the contralateral VLO. […]"}, "[2]": {"tested_on": "zona incerta", "test": "Single-unit recordings in contralateral VLO during 10 Hz thalamocortical stimulation after lidocaine infusion in zona incerta", "format": "in vivo, Sprague-Dawley rats", "experimental": "ZI activity was first inactivated via incertal infusions of the sodium channel blocker lidocaine hydrochloride (FIG. 6A and FIGS. 14A-14B). […] In contrast, only 72% of units were inhibited during 10 Hz stimulation after inactivation of zona incerta with lidocaine (FIG. 6B).\nas §1, §2, §3"}, "[3]": {"conditions": "cVLO baseline (pre-stimulation) firing rate"}}, "note": "Structures can show the parent of a compound that is named as a salt."}
{"smiles": "C[N+]1(C)CCc2cc3c(cc2[C@H]1[C@@H]1OC(=O)c2c1ccc1c2OCO1)OCO3.[I-]", "note": "[BMI, bicuculline methiodide]", "values": [{"measurement": "stimulus-evoked change in firing rate of a representative cVLO unit", "setting": "[1]; 10 Hz stimulation after BMI infusion, p=0.63", "result": "no longer causes a significant change in firing rate"}, {"measurement": "effect on stimulus-evoked inhibition in cVLO", "setting": "[1]; 10 Hz thalamocortical stimulation, after BMI infusion", "result": "completely eliminated the stimulus-evoked inhibition"}, {"measurement": "time course of the reduction in stimulus-evoked inhibition", "setting": "[1]; after BMI infusion, twenty 10 Hz trials", "result": "took immediate effect after BMI infusion and continued throughout the following twenty trials"}, {"measurement": "units whose baseline firing rate decreased following BMI infusion", "setting": "[1]; [3]", "result": 18, "unit": "%"}, {"measurement": "units whose baseline firing rate increased following BMI infusion", "setting": "[1]; [3]", "result": 27, "unit": "%"}, {"measurement": "recorded units not modulated by stimulation after BMI infusion", "setting": "[1]; cVLO units, 10 Hz thalamocortical stimulation, after 500 nL BMI (0.6 mg/ml) infusion in cVLO, 49 units, 2 animals, 20 trials per condition", "result": 96, "unit": "%"}, {"measurement": "recorded units exhibiting a significant increase in firing rate during stimulation after BMI infusion", "setting": "[1]; cVLO units, 10 Hz thalamocortical stimulation, after BMI infusion", "result": 4, "unit": "%"}, {"measurement": "average baseline firing rate across all units after BMI infusion", "setting": "[1]; cVLO, p=0.66", "result": "not significantly different"}]}
{"smiles": "CCN(CC)CC(=O)Nc1c(C)cccc1C", "note": "[lidocaine, lidocaine hydrochloride]", "values": [{"measurement": "stimulus-evoked change in firing rate of a representative cVLO unit", "setting": "[2]; 10 Hz stimulation after lidocaine infusion, p=0.31", "result": "no longer exhibits a significant change in firing rate"}, {"measurement": "time course of the reduction in evoked inhibition", "setting": "[2]; after lidocaine infusion in zona incerta, twenty 10 Hz trials", "result": "took immediate effect after lidocaine infusion and persisted throughout the following twenty trials"}, {"measurement": "units inhibited during 10 Hz stimulation after inactivation of zona incerta", "setting": "[2]; cVLO units, lidocaine (2%, 500-1000 nL) infused in ipsilateral zona incerta, N=62 units, 20 trials per condition", "result": 72, "unit": "%"}, {"measurement": "stimulus-evoked changes in firing rate versus baseline and post-saline values", "setting": "[2]; cVLO, post-hoc tests, p=9.6×10^−10 and 3.0×10^−7", "result": "different than both baseline and post-saline values"}, {"measurement": "effect on remote cortical inhibition driven by 10 Hz stimulation in a subset of recorded units", "setting": "[2]; incertal infusion, representative cVLO unit", "result": "completely eliminated the remote cortical inhibition"}]}
